# From patent publication US20260265195A1, “SARM1 MODULATORS, PREPARATIONS, AND USES THEREOF” (SIRONAX LTD, priority 2022, published 2026)
# Biological target: T1, SARM1 (50-724) (Homo sapiens, UniProt Q6SZW1)
# T1 construct: Purified SARM1 (50-724) with a final concentration of 2 nM
# T1 sequence (Q6SZW1 50-724): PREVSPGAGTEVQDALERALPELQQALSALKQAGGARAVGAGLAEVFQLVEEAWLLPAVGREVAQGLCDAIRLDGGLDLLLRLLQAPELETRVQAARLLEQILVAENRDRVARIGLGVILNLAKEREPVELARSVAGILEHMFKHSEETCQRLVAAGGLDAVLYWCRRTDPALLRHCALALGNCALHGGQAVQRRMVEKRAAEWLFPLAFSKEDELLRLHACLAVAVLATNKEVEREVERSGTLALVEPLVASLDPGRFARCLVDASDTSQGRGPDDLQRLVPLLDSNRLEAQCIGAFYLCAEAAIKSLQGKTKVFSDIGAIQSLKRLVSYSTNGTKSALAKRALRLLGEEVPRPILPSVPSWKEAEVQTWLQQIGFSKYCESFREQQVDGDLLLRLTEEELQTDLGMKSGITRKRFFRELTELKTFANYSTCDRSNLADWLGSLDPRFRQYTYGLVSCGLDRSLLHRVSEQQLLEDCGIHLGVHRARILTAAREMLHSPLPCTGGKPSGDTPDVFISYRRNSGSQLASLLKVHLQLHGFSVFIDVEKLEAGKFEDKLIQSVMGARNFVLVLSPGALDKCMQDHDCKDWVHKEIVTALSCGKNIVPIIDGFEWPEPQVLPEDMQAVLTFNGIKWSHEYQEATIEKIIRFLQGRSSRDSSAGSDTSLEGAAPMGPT
# Experiment: SARM1 (50-724) enzymatic assay (NMN-activated NAD+ hydrolysis, LC-MS/MS readout)
# Format: biochemical
# Details: purified SARM1 (50-724) 2 nM, 200 μM NMN activator, 100 μM NAD+ substrate, 1 h at room temperature, read-out: IC50 (SARM1 inhibitory activity)
# Procedure: Example II. SARM1 (50-724) Enzymatic Assay
# An enzymatic assay was performed in a 384-well plate using Dulbecco's phosphate-buffered saline (PBS) as the reaction buffer. Purified SARM1 (50-724) with a final concentration of 2 nM was pre-incubated with a test compound at 1% DMSO final assay concentration for 15 min at room temperature. The reaction was initiated by adding a mixture of 200 μM nicotinamide mononucleotide (NMN) as activator and 100 μM NAD^+ as substrate. After 1 h of incubation at room temperature, the reaction was terminated with 10 times volume of 70% acetonitrile, then centrifuged at 3800 rpm for 10 min. The samples were analyzed using LC-MS/MS after diluted to a proper concentration by 10 mM ammonium acetate (pH 9.75).
# ND means “not determined.”
row,IC50 [nM],SMILES
1,≥ 1000,"CN(C(=O)c1[nH]c2cc(Br)ccc2c1CO)C1CCCC1 [Compound 40, 6-bromo-N-cyclopentyl-3-(hydroxymethyl)-N-methyl-1H-indole-2-carboxamidc]"
2,101 to 500,"Cc1ccc2[nH]c(C(=O)N(C)C3CCCCC3)c(CNc3ccccn3)c2c1 [Compound 91, N-cyclohexyl-N,5-dimethyl-3-((pyridin-2-ylamino)methyl)-1H-indole-2-carboxamide]"
3,≤ 100,"CS(=O)(=O)CCN(C(=O)c1nc2cc(C(F)(F)F)ccc2[nH]1)c1cccc(F)c1Cl [Compound 229, N-(2-chloro-3-fluorophenyl)-N-(2-(methylsulfonyl)ethyl)-5-(trifluoromethyl)-1H-benzo[d]imidazole-2-carboxamide]"
4,≥ 1000,"CN(C(=O)c1nc2c(C#N)cccc2[nH]1)C1CCCC1 [Compound 95, 4-cyano-N-cyclopentyl-N-methyl-1H-benzo[d]imidazole-2-carboxamide]"
5,≥ 1000,"COc1cc(OC)c2c(CO)c(C(=O)N(C)C3CCCC3)[nH]c2c1 [Compound 34, N-cyclopentyl-3-(hydroxymethyl)-4,6-dimethoxy-N-methyl-1H-indole-2-carboxamide]"
6,≤ 100,"N#Cc1ccc(Cl)c(Cl)c1N(CCO)C(=O)c1nc2cc(C(F)(F)F)ccc2[nH]1 [Compound 115, N-(2,3-dichloro-6-cyanophenyl)-N-(2-hydroxyethyl)-5-(trifluoromethyl)-1H-benzo[d]imidazole-2-carboxamide]"
7,≤ 100,CCOC(=O)C(F)(F)CN(C(=O)c1nc2cc(C3CC3)ccc2[nH]1)c1cccc(F)c1Cl [Compound 209]
8,≥ 1000,"Cc1ccc2[nH]c(C(=O)N(CC3COC3)C3CCCC3)nc2c1 [Compound 65, N-cyclopentyl-5-methyl-N-(oxetan-3-ylmethyl)-1H-benzo[d]imidazole-2-carboxamide]"
9,≤ 100,O=C(c1nc2cc(C3CC3)ccc2[nH]1)N(CCO)c1cccc(Cl)c1Cl [Compound 190]
10,≥ 1000,"Cc1ccc2[nH]c(C(=O)N(C)C3CC4CC4C3)nc2c1 (centres unmarked) [Compound 53, N-(bicyclo[3.1.0]hexan-1H-benzo[d]imidazole-2-carboxamide]"
11,101 to 500,"CS(=O)(=O)c1ccc2[nH]c(C(=O)N(CCO)c3cccc(Cl)c3Cl)nc2c1 [Compound 108, N-(2,3-dichlorophenyl)-N-(2-hydroxyethyl)-5-(methylsulfonyl)-1H-benzo[d]imidazole-2-carboxamide]"
12,101 to 500,"Cc1ccc2[nH]c(C(=O)N(C)C3CCCC3)c(CNc3nc(C(N)=O)cs3)c2c1 [Compound 73, 2-(((2-(cyclopentyl(methyl)carbamoyl)-5-methyl-1H-indol-3-yl)methyl)amino)thiazole-4-carboxamide]"
13,≤ 100,Cc1ccc2[nH]c(C(=O)N(CCO)c3cccc(Cl)c3Cl)nc2c1Br [Compound 160]
14,≤ 100,O=C(c1nc2cc(C(F)(F)F)cc(F)c2[nH]1)N(CCO)c1cccc(Cl)c1Cl [Compound 206]
15,≤ 100,NC(=O)C(F)(F)CN(C(=O)c1nc2cc(Cl)cc(F)c2[nH]1)c1cccc(F)c1Cl [Compound 234]
16,≤ 100,O=C(c1nc2cc(Cl)cc(F)c2[nH]1)N(c1cccc(F)c1Cl)C1CCS(=O)(=O)C1 (racemic) [Compound 191]
17,≤ 100,"O=C(c1nc2cc(C(F)(F)F)ccc2[nH]1)N(CC1(O)CC1)c1cccc(Cl)c1Cl [Compound 197, N-(2,3-dichlorophenyl)-N-((1-hydroxycyclopropyl)methyl)-5-(trifluoromethyl)-1H-benzo[d]imidazole-2-carboxamide]"
18,101 to 500,"Cc1ccnc(N(CCO)C(=O)c2nc3cc(C(F)(F)F)ccc3[nH]2)c1Cl [Compound 138, N-(3-chloro-4-methylpyridin-2-yl)-N-(2-hydroxyethyl)-5-(trifluoromethyl)-1H-benzo[d]imidazole-2-carboxamide]"
19,≤ 100,"O=C(c1nc2cc(C(F)(F)F)ccc2[nH]1)N(CC1(F)COC1)c1cccc(Cl)c1Cl [Compound 135, N-(2,3-dichlorophenyl)-N-((3-fluorooxetan-3-yl)methyl)-5-(trifluoromethyl)-1H-benzo[d]imidazole-2-carboxamido]"

row,IC50 [nM],SMILES
1,101 to 500,Cc1c(F)cncc1N(CCO)C(=O)c1nc2cc(C(F)(F)F)ccc2[nH]1 [compound 169]
2,≥ 1000,"Cc1ccc2[nH]c(C(=O)N(C)C3CCN(C)CC3)c(CNc3ccccn3)c2c1 [Compound 86, N,5-dimethyl-N-(1-methylpiperidin-4-yl)-3-((pyridin-2-ylamino)methyl)-1H-indole-2-carboxamide]"
3,101 to 500,"Cc1ccc2[nH]c(C(=O)N(C)C3CCCC3)nc2c1C#N [Compound 97, 4-cyano-N-cyclopentyl-N,5-dimethyl-1H-benzo[d]imidazole-2-carboxamide]"
4,101 to 500,Cc1ccc2[nH]c(C(=O)N(CCO)c3cccc(Cl)c3Cl)nc2c1-c1cc[nH]c(=O)c1 [Compound 164]
5,≥ 1000,"Cc1ccc2c(c1)c(CO)c(C(=O)N(C)C1C(C)CCC1C)n2C (centres unmarked) [Compound 18, N-(2,5-dimethylcyclopentyl)-3-(hydroxymethyl)-N,1,5-trimethyl-1H-indole-2-carboxamide]"
6,101 to 500,"COCCc1c(C(=O)N(C)C2CCCC2)[nH]c2ccc(C)cc12 [Compound 37, N-cyclopenty1-3-(2-methoxyethyl)-N,5-dimethyl-1H-indole-2-carboxamide]"
7,≤ 100,"COC1CN(CCN(C(=O)c2nc3cc(C(F)(F)F)ccc3[nH]2)c2cccc(Cl)c2Cl)C1 [Compound 167, N-(2,3-dichlorophenyl)-N-(2-(3-methoxyazetidin-1-yl)ethyl)-5-(trifluoromethyl)-1H-benzo[d]imidazole-2-carboxamide]"
8,101 to 500,"O=C(c1nc2cc(C(F)(F)F)ccc2[nH]1)N(CC(F)(F)CO)c1cc(F)ccc1Cl [Compound 219, N-(2-chloro-5-fluorophenyl)-N-(2,2-difluoro-3-hydroxypropyl)-5-(trifluoromethyl)-1H-benzo[d]imidazole-2-carboxamide]"
9,≥ 1000,"Cc1ccc2[nH]c(C(=O)N(C)c3cc(F)cc(F)c3)c(CO)c2c1 [Compound 19, N-(3,5-difluorophenyl)-3-(hydroxymethyl)-N,5-dimethyl-1H-indole-2-carboxamide]"
10,101 to 500,"O=C(c1nc2cc(C(F)(F)F)ccc2[nH]1)N(CCO)[C@@H]1CCCC[C@H]1OC(F)(F)F (racemic) [Compound 60, N-(2-hydroxyethyl)-N-((1R,2R)-2-(trifluoromethoxy)cyclohexyl)-5-(trifluoromethyl)-1H-benzo[d]imidazole-2-carboxamide]"
11,101 to 500,"Cc1ccc2[nH]c(C(=O)N(CCO)C3CCCC3)nc2c1 [Compound 49, N-cyclopentyl-N-(2-hydroxyethyl)-5-methyl-1H-benzo[d]imidazole-2-carboxamide]"
12,101 to 500,"O=C(c1nc2cc(C(F)(F)F)ccc2[nH]1)N(CCO)c1c(Cl)cccc1Cl [Compound 159, N-(2,6-dichlorophenyl)-N-(2-hydroxyethyl)-5-(trifluoromethyl)-1H-benzo[d]imidazole-2-carboxamide]"
13,≤ 100,"NC(=O)C(F)(F)CN(C(=O)c1nc2cc(C(F)(F)F)ccc2[nH]1)c1cccc(Cl)c1Cl [Compound 107, N-(3-amino-2,2-difluoro-3-oxopropyl)-N-(2,3-dichlorophenyl)-5-(trifluoromethyl)-1H-benzo[d]imidazole-2-carboxamide]"
14,≤ 100,"O=C(c1nc2cc(C(F)(F)F)ccc2[nH]1)N(CC1(CO)COC1)c1cccc(Cl)c1Cl [Compound 174, N-(2,3-dichlorophenyl)-N-((3-(hydroxymethyl)oxetan-3-yl)methyl)-5-(trifluoromethyl)-1H-benzo[d]imidazole-2-carboxamido]"
15,≥ 1000,Cc1c[nH]c(-c2ccc3[nH]c(C(=O)N(CCO)c4cccc(Cl)c4Cl)nc3c2)n1 [Compound 154]
16,≥ 1000,"Cc1ccc2[nH]c(C(=O)N(C)c3cccc(C#N)c3)c(CO)c2c1 [Compound 8, N-(3-cyanophenyl)-3-(hydroxymethyl)-N,5-dimethyl-1//-indole-2-carboxamide]"
17,≤ 100,O=C(c1nc2cc(Cl)cc(F)c2[nH]1)N(CC(F)(F)CO)c1ccc(F)c(F)c1Cl [Compound 233]
18,≥ 1000,"Cn1nc(Cl)c(Cl)c1N(CCO)C(=O)c1nc2cc(C(F)(F)F)ccc2[nH]1 [Compound 126, N-(3,4-dichloro-1-methyl-1H-pyrazol-5-yl)-N-(2-hydroxyethyl)-5-(trifluoromethyl)-1H-benzo[d]imidazole-2-carboxamide]"
19,≤ 100,CC(c1cn[nH]c1)c1ccc2[nH]c(C(=O)N(CCO)c3cccc(Cl)c3Cl)nc2c1 (racemic) [Compound 189]
